Reference: patent publication US20210346359A1, “Use of CFTR Modulators For Treating Cerebrovascular Conditions” (Qanatpharma AG, priority 2018, published 2021)
“Also recorded” adds a separate entry of the source.

Tests used:
[1] = tested on: mice with subarachnoid hemorrhage; test: Cleaved caspase-3 and Fluoro-Jade staining of cortical cells in subarachnoid hemorrhage mice; type: in vivo, mouse; conditions: 2 days post-SAH, 3 mg/kg daily for 2 days
Description: The development of delayed vasoconstriction and brain injury is more rapid in the experimental mouse SAH model (2-5 days post-SAH) (12,19-21), compared to what is observed clinically (4-12 days post-SAH) (22,23). […] At 2 days post-SAH induction, animals were anesthetized with isoflurane; their brains were perfused with phosphate buffered saline (PBS) and then perfusion fixed with phosphate-buffered paraformaldehyde (4%; pH 7.4), both via the ascending aorta. Brains were immediately dissected and cut into coronal sections 1 mm posterior to the bregma. These brain sections were post-fixed in 4% paraformaldehyde (pH 7.4) for 48 hours at 4° C. and then incubated in 10% sucrose (3 hours), followed by 30% sucrose overnight (at 4° C.) for cyroprotection. The brain sections were then embedded in OCT (Sakura Finetek USA; Torrance, USA) on isopentane and dry ice. Cryostat sections (5 μm thick coronal slices) were collected on “Tissue Path Superfrost Plus Gold” slides (Fisher Scientific; Whitby, Canada) and stored at −80° C. until used.
All samples were pre-treated with 10-minute proteinase (20 μg/ml; Promega; Madison, USA), followed by a standard 60-minute blocking procedure with either 10% normal donkey serum (Jackson immunoResearch Laboratories; West Grove, USA) in PBS or 10% goat serum (Invitrogen Life Technologies; Burlington, Canada) in PBS containing 1% bovine serum albumin. Brain slices were incubated with monoclonal rabbit anti-human active cleaved caspase-3 ([…] C92-605; 1:1000 dilution; BD Biosciences Canada; Mississauga Canada) and conjugated with Alexa Fluor 488 goat anti-rabbit IgG (Invitrogen). Both antibodies were diluted in Can Get Signal® immunoreaction enhancer solution and used an incubation time of 1 hour at room temperature. Specimens were washed and mounted with CC MountÔ.
Brain slices were serially incubated with 1% NaOH/80% ethanol (5 minutes), 70% ethanol (2 minutes), distilled water (2 minutes) and 0.06% potassium permanganate (10 minutes). After washing with deionized water, brain slices were stained with 0.0004% Fluoro-jade B (Histo-Chem Inc, Jefferson, USA) in 0.1% acetic acid (15 minutes). […]
Digital immunofluorescence images were acquired using a Zeiss LSM 710 confocal laser-scanning microscope in conjunction with Zeiss ZEN 2010 software (vessel images). […] Two independent assessors counted caspase-3 and Fluoro-Jade positive cells under blinded conditions, as previously described (12). For each animal, counts were obtained from the cortical region of a single coronal brain slice 1 mm posterior to the bregma (200× magnification), which includes the left and right temporal and parietal lobes The number of positive cells counted by each assessor was averaged, yielding a mean positive cell count/animal that was then used for statistical analyses.

CFTR mRNA = test: Quantitative PCR of CFTR mRNA in cerebral arteries of naïve mice treated in vivo; design: species or system mouse; conditions: 3 mg/kg daily for 2 days, vs vehicle controls
Description: Resistance artery RNA was isolated with Norgen Biotek (Thorold, Canada) “Total RNA Purification Micro” spin columns, using the proteinase K digestion and DNA removal procedures, as directed by the manufacturer's instructions. The eluted RNA was quantified with an Agilent Technologies RNA 6000 Pico Kit and Bioanalyzer; the analysis confirmed that high-quality RNA was retrieved from the artery tissue samples (RNA Integrity [RIN]: Cerebral=8.4±0.1, n=5; Cremaster=8.2±0.4, n=6). Isolation of RNA from Baby Hamster Kidney fibroblast cells followed the same procedure, with the omission of the proteinase K digestion step. […]
Quantitative FOR was performed using an Applied Biosystems ViiA™ 7 Real Time FCR system and Power SYBR® Green FCR master mix (both distributed by lnvitrogen Life Technologies). […] Gene targets were assessed in triplicate, using 1 ng of cDNA generated from the reverse transcription; negative controls received water. […] Transcript expression levels in mouse tissues were calculated from the DCt values relative to the standard housekeeping gene hydroxymethylbilane synthase (HMBS). To confirm that HMBS was reliable for normalization, transcript expression levels were also calculated from the DCt values relative to glucose-6-phosphate dehydrogenase (G6PD), which returned similar results. […]

human CFTR mRNA = test: Quantitative PCR of CFTR mRNA in baby hamster kidney fibroblast cells stably expressing human CFTR; type: cell-based; conditions: 6 μmol/L, 24 h
Experimental: Procedures for isolating and culturing mesenteric artery smooth muscle cells were carried out as described in (10). Briefly, mesenteric artery segments were isolated, cut into small pieces and digested with trypsin, collagenase and elastase. The resulting cell suspension was washed several times in phosphate-buffered saline and plated in Dulbecco's Modified Eagle Medium (DMEM) culture media containing 10% fetal bovine serum and 1% penicillin-streptomycin. Cell cultures were maintained at 37° C. with 5% CO2 and split at 106 cells seeding density. […]
Resistance artery RNA was isolated with Norgen Biotek (Thorold, Canada) “Total RNA Purification Micro” spin columns, using the proteinase K digestion and DNA removal procedures, as directed by the manufacturer's instructions. The eluted RNA was quantified with an Agilent Technologies RNA 6000 Pico Kit and Bioanalyzer; the analysis confirmed that high-quality RNA was retrieved from the artery tissue samples (RNA Integrity [RIN]: Cerebral=8.4±0.1, n=5; Cremaster=8.2±0.4, n=6). […]
Quantitative FOR was performed using an Applied Biosystems ViiA™ 7 Real Time FCR system and Power SYBR® Green FCR master mix (both distributed by lnvitrogen Life Technologies). […] Gene targets were assessed in triplicate, using 1 ng of cDNA generated from the reverse transcription; negative controls received water. […]

| Structure (SMILES) | SAH-induced increase in Fluoro-Jade positive cortical cells [1] | SAH-induced increase in cleaved caspase-3 positive cortical cells [1] | cerebral artery CFTR mRNA expression (CFTR mRNA) | CFTR mRNA expression (human CFTR mRNA) |
| --- | --- | --- | --- | --- |
| O=C(Nc1ncc(C(c2ccccc2Cl)N2CCC(O)C2)s1)C1(c2ccc3c(c2)OCO3)CC1 (centres unmarked) [C18, 1-(benzo[d][1,3]dioxol-5-yl)-N-(5-((2-chlorophenyl)(3-hydroxypyrrolidin-1-yl)methyl)thiazol-2-yl)cyclopropanecarboxamide] | dramatically attenuate; also recorded: abolish | dramatically attenuate; also recorded: abolish | not affected; also recorded: does not influence | no affect; also recorded: does not influence |
| Cc1ccc(NC(=O)C2(c3ccc4c(c3)OC(F)(F)O4)CC2)nc1-c1cccc(C(=O)O)c1 [lumacaftor] | dramatically attenuate; also recorded: abolish | dramatically attenuate; also recorded: abolish | unaffected; also recorded: does not influence | unaffected; also recorded: does not influence |
